{
  "source": "patent US20050282910A1",
  "about": "“Methods of application of chemical compounds having therapeutic activities in treating cancers” (priority 2003, published 2005)",
  "key": {"[1]": {"tested_on": "human epidermoid carcinoma MDR cell line KBv200"}, "[2]": {"tested_on": "human epidermoid carcinoma MDR cell line KBv200", "test": "cells", "conditions": "KBv200, 72 h"}, "KBv200": {"tested_on": "KBv200", "test": "Reversal of drug resistance by ethanol extracts of Schisandra chinensis fruit, MTT cytotoxicity of anticancer agents"}, "[3]": {"tested_on": "human leukemia MDR cell line K562/adr", "test": "Reversal of P-glycoprotein-mediated drug resistance by Schisandrin A, Schisandrol A, Schisantherin A, MTT cytotoxicity of anticancer agents", "assay_type": "cell-based", "conditions": "for IC50: Homo sapiens, K562/Adr, 72 h", "experimental": "Assays were carried out in triplicate against human leukemia MDR cell line K562/adr, human breast cancer MDR cell line MCF7/adr, and human epidermoid carcinoma MDR cell line KBv200."}, "MCF7/adr": {"tested_on": "MCF7/adr", "test": "Reversal of drug resistance by ethanol extracts of Schisandra chinensis fruit, MTT cytotoxicity of anticancer agents"}, "SMMC7721": {"tested_on": "SMMC7721", "test": "Enhancement of anticancer agent-induced apoptosis and necrosis, Anexin V-FITC/PI", "assay_type": "cell-based, human", "conditions": "SMMC7721; vincristine 0.5 μg/ml, Schisandrin B 20 μg/ml; 48 hours", "experimental": "To illustrate the activities of Schisandrin B or its analogs enhancing the apoptosis of cancer cells induced by an anticancer agent according to the present disclosure, human cancer cell line SMMC7721, a non-drug-resistant hepatic cancer cell line, and MCF7, a non-drug-resistant breast cancer cell line, were selected for use. Assays were carried out in triplicates against SMMC7721 or MCF7. […] Cells were collected and the apoptotic cells and necrotic cell percentages were determined using Anexin V-FITC/PI kit (Sigma, St. Louis, Mo., USA) according to manufacturer's instructions. Alternatively, the apoptotic and necrotic cell percentages were measured using DNA Plus kit (Becton-Dickinson, USA) according to the manufacturer's instructions."}, "[4]": {"tested_on": "human breast cancer MDR cell line MCF7/adr"}, "K562/adr": {"tested_on": "K562/adr", "test": "Reversal of drug resistance by ethanol extracts of Schisandra chinensis fruit, MTT cytotoxicity of anticancer agents", "assay_type": "cell-based, human", "experimental": "Assays were carried out in triplicate against human MDR cancer cell lines K562/adr, KBv200, and MCF7/adr. […] Alternatively, flow cytometry assays using FACS Calibur equipped with software Cellquest 3.1f (Becton-Dickinson, Holbrook, N.J.) were applied to count the cell numbers in each sample."}, "[5]": {"tested_on": "human breast cancer MDR cell line MCF7/adr", "test": "cells", "conditions": "NCI/ADR-RES, 72 h"}, "HL60/adr": {"tested_on": "HL60/adr", "test": "Reversal of MRP1-mediated drug resistance, MTT cytotoxicity of anticancer agents", "assay_type": "cell-based, human", "conditions": "for IC50: Homo sapiens, HL60/ADR, 72 h", "experimental": "Assays were carried out in triplicate against MDR cancer cell HL60/adr. MTT assays as described previously (X."}, "MRP1": {"biological_target": "T1, MRP1 (Homo sapiens, UniProt P33527)", "T1 construct": "human cancer cell line HL60/adr, an MDR cell line characterized by MRP1 overexpression; endogenous in cells; host or cells: HL60/adr (human MDR cancer cell line)", "T1 sequence (P33527 whole entry)": "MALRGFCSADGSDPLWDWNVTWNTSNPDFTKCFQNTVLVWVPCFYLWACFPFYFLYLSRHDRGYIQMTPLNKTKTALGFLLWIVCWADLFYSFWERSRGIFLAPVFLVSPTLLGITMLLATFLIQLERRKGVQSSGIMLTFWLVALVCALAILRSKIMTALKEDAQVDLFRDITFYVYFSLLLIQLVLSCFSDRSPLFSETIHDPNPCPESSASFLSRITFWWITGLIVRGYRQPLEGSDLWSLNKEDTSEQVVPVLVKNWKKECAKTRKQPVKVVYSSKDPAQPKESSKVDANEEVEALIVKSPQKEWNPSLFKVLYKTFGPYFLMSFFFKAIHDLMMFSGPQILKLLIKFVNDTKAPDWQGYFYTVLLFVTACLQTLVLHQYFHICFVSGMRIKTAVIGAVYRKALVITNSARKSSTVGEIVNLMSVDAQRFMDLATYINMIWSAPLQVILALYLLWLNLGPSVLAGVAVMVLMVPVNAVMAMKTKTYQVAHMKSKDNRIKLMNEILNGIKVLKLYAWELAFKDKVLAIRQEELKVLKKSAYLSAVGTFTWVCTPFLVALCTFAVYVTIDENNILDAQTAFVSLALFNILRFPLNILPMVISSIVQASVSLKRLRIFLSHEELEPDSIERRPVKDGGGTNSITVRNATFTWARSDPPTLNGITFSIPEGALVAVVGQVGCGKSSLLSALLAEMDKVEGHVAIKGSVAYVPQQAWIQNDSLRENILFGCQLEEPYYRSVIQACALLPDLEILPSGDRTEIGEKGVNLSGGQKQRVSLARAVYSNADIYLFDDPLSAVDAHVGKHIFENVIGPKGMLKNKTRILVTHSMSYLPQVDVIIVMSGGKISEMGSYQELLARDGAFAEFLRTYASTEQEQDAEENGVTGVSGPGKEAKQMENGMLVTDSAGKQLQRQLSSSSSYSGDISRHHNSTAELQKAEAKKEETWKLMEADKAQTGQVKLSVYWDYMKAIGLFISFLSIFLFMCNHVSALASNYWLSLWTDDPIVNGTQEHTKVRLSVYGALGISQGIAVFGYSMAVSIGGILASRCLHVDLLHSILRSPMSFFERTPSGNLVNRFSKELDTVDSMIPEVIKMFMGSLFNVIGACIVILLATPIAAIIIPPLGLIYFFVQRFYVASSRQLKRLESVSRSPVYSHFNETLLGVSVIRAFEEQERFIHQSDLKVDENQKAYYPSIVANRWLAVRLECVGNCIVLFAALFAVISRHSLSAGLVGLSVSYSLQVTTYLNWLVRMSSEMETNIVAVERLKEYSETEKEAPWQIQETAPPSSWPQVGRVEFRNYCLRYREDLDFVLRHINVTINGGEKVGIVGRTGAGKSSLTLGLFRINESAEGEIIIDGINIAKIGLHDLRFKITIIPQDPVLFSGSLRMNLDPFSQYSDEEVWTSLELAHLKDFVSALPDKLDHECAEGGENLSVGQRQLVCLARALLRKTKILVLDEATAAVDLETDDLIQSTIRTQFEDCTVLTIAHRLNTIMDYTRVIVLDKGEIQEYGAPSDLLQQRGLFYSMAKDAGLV", "test": "Daunorubicin accumulation in HL60/adr cells (MRP1-mediated drug efflux), flow cytometry", "assay_type": "cell-based", "conditions": "2 μg/ml daunorubicin; 60 minutes; FIG. 7", "description": "MRP1 functions as a drug pump that unilaterally pumps the anticancer agents out of MDR cancer cells. Inhibition of MRP1 results in an increase of intracellular drug concentration within cancer cells."}, "P-glycoprotein": {"biological_target": "P-glycoprotein (Homo sapiens, UniProt P08183)", "sequence (P08183 whole entry)": "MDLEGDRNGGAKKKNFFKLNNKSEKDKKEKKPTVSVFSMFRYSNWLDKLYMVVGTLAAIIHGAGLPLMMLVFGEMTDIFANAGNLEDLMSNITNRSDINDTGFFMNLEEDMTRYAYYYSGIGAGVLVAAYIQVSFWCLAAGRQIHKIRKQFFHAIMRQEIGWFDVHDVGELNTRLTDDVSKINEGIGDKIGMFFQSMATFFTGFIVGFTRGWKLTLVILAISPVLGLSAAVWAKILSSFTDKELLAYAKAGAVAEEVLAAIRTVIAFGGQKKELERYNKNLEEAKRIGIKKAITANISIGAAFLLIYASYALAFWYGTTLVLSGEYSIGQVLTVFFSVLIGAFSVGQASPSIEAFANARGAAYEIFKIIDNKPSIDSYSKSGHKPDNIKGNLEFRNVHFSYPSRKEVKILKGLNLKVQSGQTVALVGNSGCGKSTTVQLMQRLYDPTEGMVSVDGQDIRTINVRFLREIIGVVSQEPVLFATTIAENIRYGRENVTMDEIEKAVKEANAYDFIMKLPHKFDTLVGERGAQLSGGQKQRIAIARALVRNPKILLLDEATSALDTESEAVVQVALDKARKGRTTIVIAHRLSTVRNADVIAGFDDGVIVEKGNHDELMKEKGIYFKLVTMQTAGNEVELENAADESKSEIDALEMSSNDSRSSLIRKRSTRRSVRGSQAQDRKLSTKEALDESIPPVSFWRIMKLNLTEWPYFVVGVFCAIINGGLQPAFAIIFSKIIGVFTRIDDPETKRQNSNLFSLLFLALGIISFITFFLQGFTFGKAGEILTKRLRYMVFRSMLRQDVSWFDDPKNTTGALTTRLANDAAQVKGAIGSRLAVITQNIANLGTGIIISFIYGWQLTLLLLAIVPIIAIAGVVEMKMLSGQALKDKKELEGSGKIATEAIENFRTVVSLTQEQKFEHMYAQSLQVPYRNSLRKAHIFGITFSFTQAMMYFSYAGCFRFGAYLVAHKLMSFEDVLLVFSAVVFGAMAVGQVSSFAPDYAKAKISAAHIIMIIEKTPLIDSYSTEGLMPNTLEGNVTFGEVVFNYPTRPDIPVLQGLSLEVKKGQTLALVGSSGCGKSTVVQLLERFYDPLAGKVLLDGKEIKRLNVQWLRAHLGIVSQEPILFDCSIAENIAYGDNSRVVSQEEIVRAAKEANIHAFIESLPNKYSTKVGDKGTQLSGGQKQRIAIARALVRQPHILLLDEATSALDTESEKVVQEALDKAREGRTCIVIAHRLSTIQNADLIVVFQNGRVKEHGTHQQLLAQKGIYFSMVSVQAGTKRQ", "test": "Daunorubicin accumulation in MCF7/adr cells (P-glycoprotein-mediated drug efflux), flow cytometry", "assay_type": "cell-based", "conditions": "2 μg/ml daunorubicin; 0, 1, 10, 20, 40, and 80 μg/ml compound; 60 minutes; FIG. 5", "experimental": "P-glycoprotein functions as a drug pump that unilaterally pumps the anticancer agents out of MDR cancer cells. Inhibition of P-glycoprotein results in an increase of the intracellular drug concentration within cancer cells. […] Cells were collected at 60 minutes after incubation."}, "[6]": {"conditions": "anticancer agent in the presence of Schisandrin A (10 μg/ml), 72 hours"}, "[7]": {"conditions": "anticancer agent in the presence of Schisantherin A (10 μg/ml), 72 hours"}, "[8]": {"conditions": "read-out: IC50 (ng/ml) −Schisandrin A"}, "[9]": {"conditions": "read-out: IC50 (ng/ml) −Schisantherin A"}},
  "note": "Read-outs that look alike come from different tables or passages of the source.",
  "data": [
    {"smiles": "CC[C@]1(O)C[C@H]2CN(CCc3c([nH]c4ccccc34)[C@@](C(=O)OC)(c3cc4c(cc3OC)N(C=O)[C@H]3[C@@](O)(C(=O)OC)[C@H](OC(C)=O)[C@]5(CC)C=CCN6CC[C@]43[C@@H]65)C2)C1", "note": "[Vincristine]", "values": [
      {"measurement": "IC50 (ng/ml) +Schisandrin A", "setting": "[1]; [6]", "value": "2.95 ± 0.7", "unit": "ng/mL"},
      {"measurement": "IC50 (ng/ml) +Schisantherin A", "setting": "[1]; [7]", "value": "3.7 ± 0.9", "unit": "ng/mL"},
      {"measurement": "RF (reversal folds of drug resistance)", "setting": "[1]; by Schisandrin A (10 μg/ml)", "value": 7.6},
      {"measurement": "RF (reversal folds of drug resistance)", "setting": "[1]; by Schisantherin A (10 μg/ml)", "value": 6.1},
      {"measurement": "IC50", "setting": "[2]; [8]", "value": "22.5 ± 3.2", "unit": "ng/mL"},
      {"measurement": "IC50", "setting": "[2]; [9]", "value": "22.5 ± 5.6", "unit": "ng/mL"},
      {"measurement": "IC50", "setting": "KBv200; Homo sapiens, KBv200, 72 h, read-out: IC50 (ng/ml) −ethanol extract", "value": "42 ± 14", "unit": "ng/mL"},
      {"measurement": "RF (reversal folds of drug resistance)", "setting": "KBv200; KBv200, by ethanol extracts (50 μg/ml)", "value": 13.5},
      {"measurement": "IC50", "setting": "[3]; K562/adr, anticancer agent in the absence of Schisandrin A, 72 hours, read-out: IC50 (ng/ml) −Schisandrin A", "value": "612 ± 176", "unit": "ng/mL"},
      {"measurement": "IC50", "setting": "[3]; K562/adr, anticancer agent in the absence of Schisantherin A, 72 hours, read-out: IC50 (ng/ml) −Schisantherin A", "value": "612 ± 158", "unit": "ng/mL"},
      {"measurement": "IC50 (ng/ml) +Schisandrin A", "setting": "[3]; K562/adr, anticancer agent in the presence of Schisandrin A (10 μg/ml), 72 hours", "value": "7.3 ± 2.1", "unit": "ng/mL"},
      {"measurement": "IC50 (ng/ml) +Schisantherin A", "setting": "[3]; K562/adr, anticancer agent in the presence of Schisantherin A (10 μg/ml), 72 hours", "value": "7.7 ± 2.1", "unit": "ng/mL"},
      {"measurement": "RF (reversal folds of drug resistance)", "setting": "[3]; K562/adr, by Schisandrin A (10 μg/ml)", "value": 83.8},
      {"measurement": "RF (reversal folds of drug resistance)", "setting": "[3]; K562/adr, by Schisantherin A (10 μg/ml)", "value": 79.5},
      {"measurement": "IC50", "setting": "MCF7/adr; Homo sapiens, NCI/ADR-RES, 72 h, read-out: IC50 (ng/ml) −ethanol extract", "value": "490 ± 112", "unit": "ng/mL"},
      {"measurement": "IC50 (ng/ml) +ethanol extract", "setting": "MCF7/adr; MCF7/adr, anticancer agent in the presence of ethanol extracts (50 μg/ml), 72 hours", "value": "210 ± 32", "unit": "ng/mL"},
      {"measurement": "RF (reversal folds of drug resistance)", "setting": "MCF7/adr; MCF7/adr, by ethanol extracts (50 μg/ml)", "value": 2.3},
      {"measurement": "Apoptotic + necrotic (%)", "setting": "SMMC7721", "value": "6.1 ± 0.4", "unit": "%"},
      {"measurement": "IC50 (ng/ml) +Schisandrin A", "setting": "[4]; [6]", "value": "8.4 ± 2.3", "unit": "ng/mL"},
      {"measurement": "IC50 (ng/ml) +Schisantherin A", "setting": "[4]; [7]", "value": "24.1 ± 9.2", "unit": "ng/mL"},
      {"measurement": "RF (reversal folds of drug resistance)", "setting": "[4]; by Schisandrin A (10 μg/ml)", "value": 59.6},
      {"measurement": "RF (reversal folds of drug resistance)", "setting": "[4]; by Schisantherin A (10 μg/ml)", "value": 20.9},
      {"measurement": "IC50", "setting": "K562/adr; Homo sapiens, anticancer agent in the absence of ethanol extracts, 72 hours, read-out: IC50 (ng/ml) −ethanol extract", "value": "870 ± 230", "unit": "ng/mL"},
      {"measurement": "IC50 (ng/ml) +ethanol extract", "setting": "K562/adr; anticancer agent in the presence of ethanol extracts (50 μg/ml), 72 hours", "value": "110 ± 42", "unit": "ng/mL"},
      {"measurement": "RF (reversal folds of drug resistance)", "setting": "K562/adr; by ethanol extracts (50 μg/ml)", "value": 7.9},
      {"measurement": "IC50", "setting": "[5]; [8]", "value": "501 ± 129", "unit": "ng/mL"},
      {"measurement": "IC50", "setting": "[5]; [9]", "value": "501 ± 109", "unit": "ng/mL"},
      {"measurement": "IC50 (ng/ml) +Schisandrin A", "setting": "HL60/adr; HL60/adr, anticancer agent in the presence of Schisandrin A (10 μg/ml), 72 hours", "value": "3.3 ± 0.9", "unit": "ng/mL"},
      {"measurement": "IC50 (ng/ml) +Schisandrin B", "setting": "HL60/adr; HL60/adr, anticancer agent in the presence of Schisandrin B (10 μg/ml), 72 hours", "value": "<1", "unit": "ng/mL"},
      {"measurement": "IC50 (ng/ml) +Schisantherin A", "setting": "HL60/adr; HL60/adr, anticancer agent in the presence of Schisantherin A (10 μg/ml), 72 hours", "value": "3.9 ± 0.9", "unit": "ng/mL"},
      {"measurement": "RF (reversal folds of drug resistance)", "setting": "HL60/adr; HL60/adr, by Schisandrin A (10 μg/ml)", "value": 27.0},
      {"measurement": "RF (reversal folds of drug resistance)", "setting": "HL60/adr; HL60/adr, by Schisandrin B (10 μg/ml)", "value": ">48"},
      {"measurement": "RF (reversal folds of drug resistance)", "setting": "HL60/adr; HL60/adr, by Schisantherin A (10 μg/ml)", "value": 22.8},
      {"measurement": "IC50 (ng/ml) +Schisandrin B", "setting": "HL60/adr; HL60/adr, vincristine in the presence of Schisandrin B 5 μg/ml, 72 hours", "value": "5 ± 1", "unit": "ng/mL"},
      {"measurement": "IC50 (ng/ml) +Schisandrin B", "setting": "HL60/adr; HL60/adr, vincristine in the presence of Schisandrin B 10 μg/ml, 72 hours", "value": "4 ± 2", "unit": "ng/mL"},
      {"measurement": "IC50 (ng/ml) +Schisandrin B", "setting": "HL60/adr; HL60/adr, vincristine in the presence of Schisandrin B 20 μg/ml, 72 hours", "value": "<1", "unit": "ng/mL"},
      {"measurement": "IC50", "setting": "HL60/adr; HL60/adr, anticancer agent in the absence of Schisandrin A, 72 hours, read-out: IC50 (ng/ml) −Schisandrin A", "value": "89 ± 21", "unit": "ng/mL"},
      {"measurement": "IC50", "setting": "HL60/adr; HL60/adr, anticancer agent in the absence of Schisandrin B, 72 hours, read-out: IC50 (ng/ml) −Schisandrin B", "value": "48 ± 12", "unit": "ng/mL"},
      {"measurement": "IC50", "setting": "HL60/adr; HL60/adr, anticancer agent in the absence of Schisantherin A, 72 hours, read-out: IC50 (ng/ml) −Schisantherin A", "value": "89.1 ± 21", "unit": "ng/mL"},
      {"measurement": "IC50", "setting": "HL60/adr; HL60/adr, vincristine in the absence of Schisandrin B, 72 hours, read-out: IC50 (ng/ml) −Schisandrin B", "value": "42 ± 1", "unit": "ng/mL"}
    ]},
    {"smiles": "COc1cc2c(c(OC)c1OC)-c1c(cc3c(c1OC)OCO3)C[C@H](C)[C@](C)(O)[C@H]2OC(=O)c1ccccc1", "note": "[Schisantherin A]", "values": [
      {"measurement": "sensitivity of MDR cancer cell K562/adr to daunorubicin (in words)", "setting": "[3]; FIG. 3", "value": "increase the sensitivity"},
      {"measurement": "daunorubicin accumulation within HL60/adr cells (in words)", "setting": "MRP1", "value": "increased with the increasing concentration"},
      {"measurement": "accumulation of daunorubicin within MCF7/adr cells (in words)", "setting": "P-glycoprotein", "value": "proportionately correlated with the increment of the concentration"},
      {"measurement": "drug sensitivity of HL60/adr toward the anticancer agents (in words)", "setting": "HL60/adr; compound 10 μg/ml", "value": "enhanced"}
    ]}
  ]
}
